Measurements as given in US20080119498A1, “Therapeutic Agent for Pruritus Comprising P38 Map Kinase Inhibitor as the Active Ingredient” (priority 2004, published 2008).

What was measured:
[1] = tested on: histamine-induced eye scratching behavior; assay: Ocular pruritus inhibition activity to histamine-induced models; assay type: in vivo, guinea pig; settings: for number of eye scratching times in comparison with the control (in words): histamine-induced guinea pig model, instilled at 0.1%; for Eye scratching behavior inhibition ratio / Number of eye scratching times: male Hartley guinea pigs, 0.1% (w/v) instilled twice, 10 μl per eye; for Eye scratching behavior inhibition ratio: 30 minutes after instillation of 1.0% histamine, versus control; for Number of eye scratching times: average for 30 minutes after instillation of 1.0% histamine, control 6.1
Method: Compound A was dissolved in a 5.0% Tween 80/physiological saline solution at a concentration of 0.1% (w/v), and Compound B was suspended in a 5.0% Tween 80/physiological saline solution at a concentration of 0.1% (w/v), whereby the respective test compound solutions were prepared.
Each test compound solution was instilled into both eyes of 5-week-old male Hartley guinea pigs in an amount of 10 μl per eye. At 15 minutes thereafter, each test compound solution of the same concentration was instilled again (twice in total). As a control, a 5.0% Tween 80/physiological saline solution was used.
After 15 minutes from the second instillation of each test compound solution, a physiological saline solution in which histamine was dissolved at 1.0% (w/v) was instilled into both eyes of the above guinea pigs in an amount of 10 μl per eye to induce eye scratching behavior.
(§1) The behavior of the guinea pigs after the instillation of histamine was videotaped, and the ocular pruritus was evaluated for each eye by counting the number of times of a series of behaviors of scratching the eye with the hind paws. In Table 1, the average of the number of eye scratching times for 30 minutes after the instillation of histamine and the average of the eye scratching behavior inhibition ratio are shown. Each group consisted of 8 eyes.
(§2) Eye scratching behavior inhibition ratio (%)=100−(number of eye scratching times for test compound)/(number of eye scratching times for control)×100

[2] = tested on: platelet activating factor-induced eye scratching behavior; assay: Ocular pruritus inhibition activity to platelet activating factor-induced models; assay type: in vivo, guinea pig; settings: for Eye scratching behavior inhibition ratio / Number of eye scratching times: male Hartley guinea pigs, 10 μl per eye; for Eye scratching behavior inhibition ratio: 30 minutes after instillation of 0.1% platelet activating factor, versus control; for Number of eye scratching times: average for 30 minutes after instillation of 0.1% platelet activating factor, control 7.1
Method: as §2
Platelet activating factor-induced ocular pruritus evaluation models were prepared in accordance with the published method of Kato et al. (J. Ocul. Pharmacol. Ther. 2003; 19: 315-324). Compound C was dissolved in ultrapure water at a concentration of 0.01% or 0.1% (w/v), and each of the resulting solutions was instilled into both eyes of 5-week-old male Hartley guinea pigs in an amount of 10 μl per eye. At 15 minutes thereafter, each solution of Compound C of the same concentration was instilled again (twice in total). As a control, ultrapure water was used.
After 15 minutes from the second instillation of the solution of Compound C, a physiological saline solution in which a platelet activating factor was dissolved at 0.1% (w/v) was instilled into both eyes of the above guinea pigs in an amount of 10 μl per eye to induce eye scratching behavior.
as §1, with “the platelet activating factor” for “histamine”, “2,” for “1,”

Row | Structure (SMILES) | number of eye scratching times in comparison with the control (in words) [1] | Eye scratching behavior inhibition ratio [1] | Number of eye scratching times [1] | Eye scratching behavior inhibition ratio ([2]; 0.01% (w/v) instilled twice) | Number of eye scratching times ([2]; 0.01% (w/v) instilled twice) | Eye scratching behavior inhibition ratio ([2]; 0.1% (w/v) instilled twice) | Number of eye scratching times ([2]; 0.1% (w/v) instilled twice) | number of eye scratching times in comparison with the control (in words) ([2]; platelet activating factor-induced guinea pig model, instilled at 0.01% or 0.1%)
1 | Cl.Oc1ccc(-c2nc(-c3ccc(F)cc3)c(-c3ccncc3)[nH]2)cc1 [Compound A, 4-(4-fluorophenyl)-2-(4-hydroxyphenyl)-5-(4-pyridyl)-1H-imidazole hydrochloride] | significantly decreased | 77.0% | 1.4 times | – | – | – | – | –
2 | COc1nccc(-c2c(-c3ccc(F)cc3)ncn2[C@H]2CC[C@H](O)CC2)n1 [Compound B, trans-4-[4-(4-fluorophenyl)-5-(2-methoxy-4-pyrimidinyl)-1H-imidazole-1-yl]cyclohexanol] | significantly decreased | 36.1% | 3.9 times | – | – | – | – | –
3 | C[S+]([O-])c1ccc(-c2nc(-c3ccc(F)cc3)c(-c3ccncc3)[nH]2)cc1.Cl (centres unmarked) [Compound C, 4-(4-fluorophenyl)-2-(4-methylsulfinylphenyl)-5-(4-pyridyl)-1H-imidazole hydrochloride] | – | – | – | 87.3% | 0.9 times | 85.9% | 1.0 times | significantly decreased
